According to patent US20230278958A1 (Merck Patent GmbH, priority 2020, published 2023):

Columns and labels:
YAP-TEAD interaction = assay: SK-HEP-1 reporter assay (8x TEAD responsive elements driving NanoLuc luciferase); type: cell-based; conditions: Homo sapiens, SK-HEP1; SK-HEP-1 TEAD-NanoLuc reporter cells, 24 hour incubation, luciferase readout
Method: To identify inhibitors of YAP-TEAD interaction, 8× TEAD responsive elements driving the NanoLuc® luciferase gene were stably integrated into SK-HEP-1 cells (ECACC #: 91091816).
For the assay, cells were treated in duplicates with the test compounds in a 10-point dose, with the top concentration starting at 30 μM (final concentration in assay). After a 24 hour incubation at 37° C., 95% rH, and 5% CO2, a luciferase substrate/lysis reagent mix (NanoGlo™, Promega) was added to the cells, allowing the quantification of cellular luciferase activity.
Cell Media: The cells were cultured in the following media: MEM, +10% FBS, +1× GlutaMAX, +1 mM Sodium-Pyruvate, +100 μM Non-essential amino acids, +0.1 mg/ml Hygromycin. The media used for the assay was: MEM (w/o Phenol Red), +10% FBS, +1× GlutaMAX, +1 mM Sodium-Pyruvate, +100 μM Non-essential amino acids, +0.5% Pen/Strep
(§1) Reagents: The reagents used are listed below:
(§2) Cell culture: The cells were examined using an inverted microscope to check for health and cell density. To dissociate adherent cells, the monolayer of cells was washed once with pre-warmed PBS. After removing the PBS, 3 ml pre-warmed Accutase® was added to a F75 flask, dispersed evenly and the flask was allowed to sit in incubator for ˜4-5 minutes.
(§3) When a single cell suspension was obtained, 7 ml of prewarmed growth media was added and resuspended with the cells. The cell suspension was transferred to a sterile 15 ml conical centrifuge tube, and spun for 5 min at 300×g, RT. The supernatant was discarded and the pellet was resuspended in 10 ml of pre-warmed growth media.
(§4) The total cell count was determined, and 20 μl of the desired cell number was added to each well of a 384 well plate using a Multidrop Combi. The plates were then incubated for 24 hours at 37° C., 95% rH, and 5% CO2.
(§5) Compound treatment: 24 hours after seeding, the cells were treated with compounds.
(§6) A 1:333 dilution of compounds, diluted in DMSO, was made to get a final concentration of 0.3% DMSO per well. To transfer the compounds to the assay plate, 120 nl was shot from Labcyte low dead volume plates to the cell plates containing 20 μl media/well with the ECHO 555 liquid handling system.
(§7) After treatment, the cells were fed with 20 μl fresh pre-warmed assay media using a Multidrop combi.
The assay plates were then incubated for another 24 h at 37° C., 95% rH, and 5% CO2.
Luciferase readout: 24 h after treatment, the plates were taken out of the incubator and were allowed to equilibrate to RT. 30 μl of NanoGlo® reagent was added to the plates in the dark. Plates were shaken for 20 min on a Teleshake (˜1500 rpm) in the dark. The luminescence was then measured using an EnVision microplate reader. The IC50 values were generated using Genedata Screener®.
Experimental data in SK-HEP-1 reporter assay of the compounds shown in Table 1 are shown in Table 2 below and classified in the following groups: […]

NCI-H226 cells = assay: Viability assay in NCI-H226 (Yap-dependent) cells, CyQUANT; type: cell-based; conditions: Homo sapiens, 96 hour incubation
Method: The ability of YAP-TEAD inhibitors to inhibit tumor cell growth was evaluated using two different cell lines: NCI-H226, which is a YAP dependent cell line, and SW620 cells, where YAP and TAZ were knocked out using CRISPR to generate a YAP independent cell line.
For the assay, cells were treated in duplicates with the test compounds in a 10-point dose, 1:3 dilution steps, with the top concentration starting at 30 μM (final concentration in assay). After a 96 hour incubation at 37° C., 95% rH, and 5% CO2, a cell-permeant DNA-binding dye that stains only healthy cells (CyQUANT®, Promega) was added to the cells, allowing the quantification of cell viability.
Cell Media: The NCI-H226 cells were cultured in the following media: RPMI 1640, +10% FBS, +1× GlutaMAX, +10 mM HEPES, +0.5% Pen/Strep. The SW620-KO cells were cultured in the following media: DMEM/F-12, +10% FBS, +1× GlutaMAX, +10 mM HEPES, +0.5% Pen/Strep.
as §1
as §2, with “health,” for “health and”, “density, etc.” for “density.”, “Accutase” for “Accutase®”
as §3, §4, §5, §6, §7
The assay plates were then incubated for 96 h at 37° C., 95% rH, and 5% CO2.
96h after treatment 30 μl of CyQuant® reagent was added to the assay plates using a Multidrop combi in the dark. The plates were then incubated for 1 hour at 37° C., 95% rH and 5% CO2. Thereafter, the assay plates were removed from the incubator and allowed to equilibrate to RT for 30 min in the dark without lid. Finally, they were measured using an EnVision microplate reader with a FITC bottom read program.
Experimental data in the Viability assay of the compounds shown in Table 1 are shown in Table 3 below and classified in the following groups: […]

For `Cc1ccc2c(c1)c1cc(C(=O)NCCO)ccc1n2-c1ccc(C(F)(F)F)cc1` [Compound 38, N-(2-hydroxyethyl)-6-methyl-9-[4-(trifluoromethyl)phenyl]-9H-carbazole-3-carboxamide], the IC50 (YAP-TEAD interaction) was 10 to 100 nM and the IC50 (NCI-H226 cells) was 0.001 to 0.1 µM.
Molecule `O=C(O)c1ccc2c(c1)c1ccncc1n2-c1ccc(C(F)(F)F)cc1` [Compound 5, 9-[4-(trifluoromethyl)phenyl]-9H-pyrido[3,4-b]indole-6-carboxylic acid] has an IC50 (YAP-TEAD interaction) of 100 to 1000 nM and an IC50 (NCI-H226 cells) of 0.1 to 1 µM.
In the case of `O=C(O)c1ccc2c(c1)c1cc(OC(F)(F)F)ccc1n2-c1ccc(C(F)(F)F)cc1` [Compound 15, 6-(trifluoromethoxy)-9-[4-(trifluoromethyl)phenyl]-9H-carbazole-3-carboxylic acid], the IC50 (YAP-TEAD interaction) is reported as 10 to 100 nM and the IC50 (NCI-H226 cells) is reported as 0.001 to 0.1 µM.
`Cc1ccc2c(c1)c1cc(C(=O)NC3CC3)ccc1n2-c1ccc(C(F)(F)F)cc1` [Compound 37, N-cyclopropyl-6-methyl-9-[4-(trifluoromethyl)phenyl]-9H-carbazole-3-carboxamide] showed an IC50 (YAP-TEAD interaction) of 10 to 100 nM and an IC50 (NCI-H226 cells) of 0.001 to 0.1 µM.
`Cc1ccc2c(c1)c1cc(C(=O)NCC(O)CO)ccc1n2-c1ccc(C(F)(F)F)cc1` (stereo not drawn) [Compound 55, N-(2,3-dihydroxypropyl)-6-methyl-9-[4-(trifluoromethyl)phenyl]-9H-carbazole-3-carboxamide] gave an IC50 (YAP-TEAD interaction) of 10 to 100 nM and an IC50 (NCI-H226 cells) of 0.001 to 0.1 µM.
In the case of `Cc1ccc2c(c1)c1cc(C(=O)NCc3ccncc3)ccc1n2-c1ccc(C(F)(F)F)cc1` [Compound 59, 6-methyl-N-[(pyridin-4-yl)methyl]-9-[4-(trifluoromethyl)phenyl]-9H-carbazole-3-carboxamide], the IC50 (YAP-TEAD interaction) is reported as 10 to 100 nM and the IC50 (NCI-H226 cells) is reported as 0.1 to 1 µM.
Work on `Cc1ccc2c(c1)c1cc(C(=O)NCC(C)(C)O)ccc1n2-c1ccc(C(F)(F)F)cc1` [Compound 43, N-(2-hydroxy-2-methylpropyl)-6-methyl-9-[4-(trifluoromethyl)phenyl]-9H-carbazole-3-carboxamide] yielded an IC50 (YAP-TEAD interaction) of 100 to 1000 nM and an IC50 (NCI-H226 cells) of 0.1 to 1 µM.
`O=C(O)c1ccc2c(c1)c1cc(Cc3ccc(F)cc3)ccc1n2-c1ccc(C(F)(F)F)cc1` [Compound 4, 6-[(4-fluorophenyl)methyl]-9-[4-(trifluoromethyl)phenyl]-9H-carbazole-3-carboxylic acid] was tested, and the IC50 (YAP-TEAD interaction) was 100 to 1000 nM and the IC50 (NCI-H226 cells) was > 10 µM.
Work on `Cc1ccc2c(c1)c1cc(C(=O)N[C@@H](CO)C3CCC3)ccc1n2-c1ccc(C(F)(F)F)cc1` [Compound 56, N-[(1R)-1-cyclobutyl-2-hydroxyethyl]-6-methyl-9-[4-(trifluoromethyl)phenyl]-9H-carbazole-3-carboxamide] yielded an IC50 (YAP-TEAD interaction) of 10 to 100 nM and an IC50 (NCI-H226 cells) of 0.001 to 0.1 µM.
With `Cc1ccc2c(c1)c1cc(C(=O)NCc3ccccn3)ccc1n2-c1ccc(C(F)(F)F)cc1` [Compound 51, 6-methyl-N-[(pyridin-2-yl)methyl]-9-[4-(trifluoromethyl)phenyl]-9H-carbazole-3-carboxamide] the IC50 (YAP-TEAD interaction) was 100 to 1000 nM and the IC50 (NCI-H226 cells) was 0.1 to 1 µM.
Work on `O=C(NC1CC1)c1cc2c3cccnc3n(-c3ccc(C(F)(F)F)cc3)c2cn1` [Compound 36, N-cyclopropyl-8-[4-(trifluoromethyl)phenyl]-5,8,10-triazatricyclo[7.4.0.0^2,^7]trideca-1(9),2(7),3,5,10,12-hexaene-4-carboxamide] yielded an IC50 (YAP-TEAD interaction) of 100 to 1000 nM and an IC50 (NCI-H226 cells) of 0.1 to 1 µM.
`N#Cc1ccc2c(c1)c1cc(C(=O)O)ccc1n2-c1ccc(C(F)(F)F)cc1` [Compound 12, 6-cyano-9-[4-(trifluoromethyl)phenyl]-9H-carbazole-3-carboxylic acid] gave an IC50 (YAP-TEAD interaction) of 10 to 100 nM and an IC50 (NCI-H226 cells) of 1 to 10 µM.
For `O=C(O)c1ccc2c(c1)c1cnccc1n2-c1ccc(C(F)(F)F)cc1` [Compound 7, 5-[4-(trifluoromethyl)phenyl]-5H-pyrido[4,3-b]indole-8-carboxylic acid], the IC50 (YAP-TEAD interaction) was > 1000 nM and the IC50 (NCI-H226 cells) was > 10 µM.
In the case of `Cc1ccc2c(c1)c1cc(C(=O)N[C@H]3COC[C@@H]3O)ccc1n2-c1ccc(C(F)(F)F)cc1` [Compound 57, N-[(3S,4R)-4-hydroxyoxolan-3-yl]-6-methyl-9-[4-(trifluoromethyl)phenyl]-9H-carbazole-3-carboxamide], the IC50 (YAP-TEAD interaction) is reported as 100 to 1000 nM and the IC50 (NCI-H226 cells) is reported as 0.1 to 1 µM.
`Cc1ccc2c(c1)c1cc(C(=O)N[C@](C)(CO)c3ccccc3)ccc1n2-c1ccc(C(F)(F)F)cc1` [Compound 46, N-[(2S)-1-hydroxy-2-phenylpropan-2-yl]-6-methyl-9-[4-(trifluoromethyl)phenyl]-9H-carbazole-3-carboxamide] gave an IC50 (YAP-TEAD interaction) of 100 to 1000 nM and an IC50 (NCI-H226 cells) of 0.1 to 1 µM.
`CCc1ccc2c(c1)c1cc(C(=O)O)ccc1n2-c1ccc(C(F)(F)F)cc1` [Compound 47, 6-ethyl-9-[4-(trifluoromethyl)phenyl]-9H-carbazole-3-carboxylic acid] showed an IC50 (YAP-TEAD interaction) of 1 to 10 nM and an IC50 (NCI-H226 cells) of 0.001 to 0.1 µM.
`Cc1ccc2c(c1)c1cc(C(=O)NCC(C)O)ccc1n2-c1ccc(C(F)(F)F)cc1` (stereo not drawn) [Compound 40, N-(2-hydroxypropyl)-6-methyl-9-[4-(trifluoromethyl)phenyl]-9H-carbazole-3-carboxamide] showed an IC50 (YAP-TEAD interaction) of 10 to 100 nM and an IC50 (NCI-H226 cells) of 0.001 to 0.1 µM.
For `Cc1cc2c3cc(C(=O)O)ccc3n(-c3ccc(C(F)(F)F)cc3)c2cc1C` [Compound 62, 6,7-dimethyl-9-[4-(trifluoromethyl)phenyl]-9H-carbazole-3-carboxylic acid], the IC50 (YAP-TEAD interaction) was 1 to 10 nM and the IC50 (NCI-H226 cells) was 0.1 to 1 µM.
Molecule `Cc1ccc2c(c1)c1cc(C(=O)NC(C)CO)ccc1n2-c1ccc(C(F)(F)F)cc1` (stereo not drawn) [Compound 39, N-(1-hydroxypropan-2-yl)-6-methyl-9-[4-(trifluoromethyl)phenyl]-9H-carbazole-3-carboxamide] has an IC50 (YAP-TEAD interaction) of 10 to 100 nM and an IC50 (NCI-H226 cells) of 0.001 to 0.1 µM.
`CCC(CO)NC(=O)c1ccc2c(c1)c1cc(C)ccc1n2-c1ccc(C(F)(F)F)cc1` (stereo not drawn) [Compound 42] was tested, and the IC50 (YAP-TEAD interaction) was 10 to 100 nM and the IC50 (NCI-H226 cells) was 0.001 to 0.1 µM.
Work on `Cc1ccc2c(c1)c1cc(C(N)=O)ccc1n2-c1ccc(C(F)(F)F)cc1` [Compound 48, 6-methyl-9-[4-(trifluoromethyl)phenyl]-9H-carbazole-3-carboxamide] yielded an IC50 (YAP-TEAD interaction) of 10 to 100 nM and an IC50 (NCI-H226 cells) of 0.1 to 1 µM.
Molecule `Cc1ccc2c(c1)c1cc(C(=O)NCc3nccn3C)ccc1n2-c1ccc(C(F)(F)F)cc1` [Compound 45] has an IC50 (YAP-TEAD interaction) of 100 to 1000 nM and an IC50 (NCI-H226 cells) of 0.1 to 1 µM.
Molecule `Cc1ccc2c(c1)c1cc(C(=O)NC(CO)C(C)C)ccc1n2-c1ccc(C(F)(F)F)cc1` (stereo not drawn) [Compound 41, N-(1-hydroxy-3-methylbutan-2-yl)-6-methyl-9-[4-(trifluoromethyl)phenyl]-9H-carbazole-3-carboxamide] has an IC50 (YAP-TEAD interaction) of 100 to 1000 nM and an IC50 (NCI-H226 cells) of 0.1 to 1 µM.
For `Cc1ccc2c(c1)c1cc(C(=O)NCc3ccncn3)ccc1n2-c1ccc(C(F)(F)F)cc1` [Compound 53, 6-methyl-N-[(pyrimidin-4-yl)methyl]-9-[4-(trifluoromethyl)phenyl]-9H-carbazole-3-carboxamide], the IC50 (YAP-TEAD interaction) was 10 to 100 nM and the IC50 (NCI-H226 cells) was 0.001 to 0.1 µM.
